Measurements reported in article PMC8342417, “The structure of an archaeal oligosaccharyltransferase provides insight into the strict exclusion of proline from the N-glycosylation sequon” (Communications Biology, 2021).

Molecular target: T1, AfAglB (AglB-L, A. fulgidus oligosaccharyltransferase) (Archaeoglobus fulgidus, UniProt O29867, G617C)
T1 construct: gene aglB3; full length 868 residues; E. coli C43(DE3); C-terminal His10 cut by thrombin leaving ELALVPR; single-subunit membrane protein in DDM, then LCP
Assay: X-ray crystal structure (LCP), […] Å
Assay type: binding
Conditions: ternary complex with disulfide-tethered peptide TAMRA-APY(Dab)VTASCR and Mn2+; pH 6.0; LLO donor site; from hydrolysis of native LLO mixture (C55 and C60) during crystallization, modelled as C60

T1 sequence (O29867 whole entry G617C): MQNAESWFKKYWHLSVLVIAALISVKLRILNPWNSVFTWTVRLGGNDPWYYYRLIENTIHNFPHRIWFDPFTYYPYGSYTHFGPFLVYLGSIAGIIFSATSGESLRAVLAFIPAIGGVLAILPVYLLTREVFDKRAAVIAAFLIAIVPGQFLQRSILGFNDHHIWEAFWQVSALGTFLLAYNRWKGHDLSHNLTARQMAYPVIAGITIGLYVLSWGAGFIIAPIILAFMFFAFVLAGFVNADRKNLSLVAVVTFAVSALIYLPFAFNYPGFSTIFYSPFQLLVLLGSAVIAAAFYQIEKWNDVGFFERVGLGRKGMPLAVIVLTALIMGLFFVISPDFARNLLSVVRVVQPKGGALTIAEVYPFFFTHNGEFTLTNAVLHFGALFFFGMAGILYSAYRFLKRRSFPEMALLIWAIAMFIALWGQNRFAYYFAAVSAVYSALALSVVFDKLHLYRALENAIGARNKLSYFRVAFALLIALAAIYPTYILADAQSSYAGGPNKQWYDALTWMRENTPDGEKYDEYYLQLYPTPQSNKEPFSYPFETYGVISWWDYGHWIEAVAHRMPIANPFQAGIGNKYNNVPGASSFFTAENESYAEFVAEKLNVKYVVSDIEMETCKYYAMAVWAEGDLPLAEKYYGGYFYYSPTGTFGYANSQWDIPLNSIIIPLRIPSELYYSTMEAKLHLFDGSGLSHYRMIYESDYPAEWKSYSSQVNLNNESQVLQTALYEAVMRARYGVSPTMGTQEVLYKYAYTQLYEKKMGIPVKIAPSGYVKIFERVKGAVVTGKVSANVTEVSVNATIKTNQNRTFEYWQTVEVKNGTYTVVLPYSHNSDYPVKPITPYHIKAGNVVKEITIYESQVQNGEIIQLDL

C/C(=C/CC/C(C)=C\CC/C(C)=C\CC/C(C)=C/CC/C(C)=C\CC/C(C)=C\CC[C@H](C)CCOP(=O)(O)O)CC/C=C(/C)CC/C=C(/C)CCCC(C)CCCC(C)CCCC(C)C (stereo partly shown) [dolichol-phosphate]
X-ray crystal structure (LCP), 2.7 Å: LLO binding site was occupied by a dolichol-phosphate, instead of an intact LLO
